target: T1, Kv7.2/7.3 (Homo sapiens, UniProt O43525+O43526); test: Kv7.2/7.3 Activation Assay (Thallium Flux Assay); format: cell-based; settings: hKV7.2/7.3 cell line; test compound at single concentration of 10 μM; fluorescence at 90 sec normalized to positive control (retigabine, 30 μM)
T1 construct: Kv7.2 tetracycline-induced, Kv7.3 constitutive
How it was run: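 Single-point activity at 10 μM (0.1% DMSO, HEPES-buffered saline, pH 7.4) was scored from fluorescence at 90 s relative to 30 μM retigabine. Categories were none <0.15, moderate 0.15-0.7 and high >0.7. Thallium influx after stimulus addition was followed with FluxOR II Green dye in hKv7.2/7.3 cells, Kv7.2 expressed under overnight tetracycline (10 ng/mL) induction.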

Kv7.2/7.3 Activity	Structure (SMILES)
++ (“++” High Activity ≥ 0.7)	Cn1nc(NC(=O)CC2CC(F)(F)C2)c(C2CCC2)c1-c1ccc(OC(F)(F)F)cc1 [Compound 72, N-(4-cyclobutyl-1-methyl-5-(4-(trifluoromethoxy)phenyl)-1H-pyrazol-3-yl)-2-(3,3-difluorocyclobutyl)acetamide]
++ (“++” High Activity ≥ 0.7)	Cn1nc(NC(=O)[C@H]2CC2(F)F)c(C2CC2)c1-c1ccc(F)cc1 [Compound 164, (R)-N-(4-cyclopropyl-5-(4-fluorophenyl)-1-methyl-1H-pyrazol-3-yl)-2,2-difluorocyclopropane-1-carboxamide]
++ (“++” High Activity ≥ 0.7)	Cn1nc(NC(=O)CC2CC(F)(F)C2)c(C2CCC2)c1-c1ccc(F)cc1F [Compound 98, N-(4-cyclobutyl-5-(2,4-difluorophenyl)-1-methyl-1H-pyrazol-3-yl)-2-(3,3-difluorocyclobutyl)acetamide]
+ (“+” Moderate Activity 0.15-0.7)	C[C@@H](C(=O)Nc1nn(C)c(-c2ccc(F)cc2)c1C1CCC1)C1CC(F)(F)C1 [Compound 132, (R)-N-(4-cyclobutyl-5-(4-fluorophenyl)-1-methyl-1H-pyrazol-3-yl)-2-(3,3-difluorocyclobutyl)propanamide]
− (“−” No Activity < 0.15)	Cn1nc(NC(=O)C2COC2)c(C2CCC2)c1-c1ccc(F)cc1 [Compound 227, N-(4-cyclobutyl-5-(4-fluorophenyl)-1-methyl-1H-pyrazol-3-yl)oxetane-3-carboxamide]
++ (“++” High Activity ≥ 0.7)	Cn1nc(NC(=O)CC(C(F)(F)F)C(F)(F)F)c(C2CCC2)c1-c1ccc(F)cc1 [Compound 109, N-(4-cyclobutyl-5-(4-fluorophenyl)-1-methyl-1H-pyrazol-3-yl)-4,4,4-trifluoro-3-(trifluoromethyl)butanamide]
++ (“++” High Activity ≥ 0.7)	C[C@@H](C(=O)Nc1nn(C)c(-c2ccc(F)cc2)c1C1CCC1)C(C)(C)C [Compound 114, (R)-N-(4-cyclobutyl-5-(4-fluorophenyl)-1-methyl-1H-pyrazol-3-yl)-2,3,3-trimethylbutanamide]
++ (“++” High Activity ≥ 0.7)	Cn1nc(NC(=O)OC2CC(F)(F)C2)c(C2CCC2)c1-c1ccc(F)cc1 [Compound 241, 3,3-difluorocyclobutyl (4-cyclobutyl-5-(4-fluorophenyl)-1-methyl-1H-pyrazol-3-yl)carbamate]
− (“−” No Activity < 0.15)	COCCNC(=O)Nc1nn(C)c(-c2ccc(F)cc2)c1C1CCC1 [Compound 246, 1-(4-cyclobutyl-5-(4-fluorophenyl)-1-methyl-1H-pyrazol-3-yl)-3-(2-methoxyethyl)urea]
++ (“++” High Activity ≥ 0.7)	Cn1nc(NC(=O)[C@H]2C[C@@]2(C)C(F)F)c(C2CCC2)c1-c1ccc(F)cc1 [Compound 112, (1S,2R)-N-(4-cyclobutyl-5-(4-fluorophenyl)-1-methyl-1H-pyrazol-3-yl)-2-(difluoromethyl)-2-methylcyclopropane-1-carboxamide]
++ (“++” High Activity ≥ 0.7)	C[C@@H](C(=O)Nc1nn(C)c(-c2ccc(F)cc2)c1C1CCC1)C1(C(F)(F)F)CC1 [Compound 128, (R)-N-(4-cyclobutyl-5-(4-fluorophenyl)-1-methyl-1H-pyrazol-3-yl)-2-(1-(trifluoromethyl)cyclopropyl)propanamide]

Second part, the molecule before the results:

Structure (SMILES)	Kv7.2/7.3 Activity
Cn1nc(NC(=O)C[C@H]2CC(F)(F)C2(F)F)c(C2CCC2)c1-c1cccc(C(C)(C)O)c1 [Compound 48, (S)-N-(4-cyclobutyl-5-(3-(2-hydroxypropan-2-yl)phenyl)-1-methyl-1H-pyrazol-3-yl)-2-(2,2,3,3-tetrafluorocyclobutyl)acetamide]	+ (“+” Moderate Activity 0.15-0.7)
Cn1nc(NC(=O)[C@H]2CC2(F)F)c(C2CCC2)c1-c1ccc(F)cc1F [Compound 159, (R)-N-(4-cyclobutyl-5-(2,4-difluorophenyl)-1-methyl-1H-pyrazol-3-yl)-2,2-difluorocyclopropane-1-carboxamide]	+ (“+” Moderate Activity 0.15-0.7)
Cn1nc(NC(=O)C[C@H]2CC(F)(F)C2(F)F)c(C2CCC2)c1-c1ccc(Cl)s1 [Compound 231, (S)-N-(5-(5-chlorothiophen-2-yl)-4-cyclobutyl-1-methyl-1H-pyrazol-3-yl)-2-(2,2,3,3-tetrafluorocyclobutyl)acetamide]	++ (“++” High Activity ≥ 0.7)
Cn1nc(NC(=O)C2CC(C(F)(F)F)C2)c(C2CCC2)c1-c1ccc(OC(F)(F)F)cc1 (stereo not shown) [Compound 191, N-(4-cyclobutyl-1-methyl-5-(4-(trifluoromethoxy)phenyl)-1H-pyrazol-3-yl)-3-(trifluoromethyl)cyclobutane-1-carboxamide]	++ (“++” High Activity ≥ 0.7)
Cn1nc(NC(=O)CC2(C(F)(F)F)CC2)c(C2CCC2)c1-c1ccccc1F [Compound 105, N-(4-cyclobutyl-5-(2-fluorophenyl)-1-methyl-1H-pyrazol-3-yl)-2-(1-(trifluoromethyl)cyclopropyl)acetamide]	++ (“++” High Activity ≥ 0.7)
Cn1nc(NC(=O)OC2CC(F)(F)C2)c(C2CCC2)c1C1CC(F)(F)C1 [Compound 274, 3,3-difluorocyclobutyl (4-cyclobutyl-5-(3,3-difluorocyclobutyl)-1-methyl-1H-pyrazol-3-yl)carbamate]	++ (“++” High Activity ≥ 0.7)
Cn1nc(NC(=O)CC2COC2)c(C2CCC2)c1-c1cnc(C(F)(F)F)s1 [Compound 86, N-(4-cyclobutyl-1-methyl-5-(2-(trifluoromethyl)thiazol-5-yl)-1H-pyrazol-3-yl)-2-(oxetan-3-yl)acetamide]	− (“−” No Activity < 0.15)
Cn1nc(NC(=O)C2CC(F)(F)C2)c(C2CCC2)c1C1CC(C)(C)C1 [Compound 188, N-(4-cyclobutyl-5-(3,3-dimethylcyclobutyl)-1-methyl-1H-pyrazol-3-yl)-3,3-difluorocyclobutane-1-carboxamide]	++ (“++” High Activity ≥ 0.7)
Cn1nc(NC(=O)CC2(C(F)(F)F)CC2)c(C2CCC2)c1-c1cnc(C(F)(F)F)s1 [Compound 50, N-(4-cyclobutyl-1-methyl-5-(2-(trifluoromethyl)thiazol-5-yl)-1H-pyrazol-3-yl)-2-(1-(trifluoromethyl)cyclopropyl)acetamide]	− (“−” No Activity < 0.15)
CC(F)(F)C1(C(=O)Nc2nn(CC(F)(F)F)c(-c3ccc(F)cc3)c2C2CCC2)CC1 [Compound 141, N-(4-cyclobutyl-5-(4-fluorophenyl)-1-(2,2,2-trifluoroethyl)-1H-pyrazol-3-yl)-1-(1,1-difluoroethyl)cyclopropane-1-carboxamide]	− (“−” No Activity < 0.15)
Cn1nc(NC(=O)C2CC(F)(F)C2)c(C2CCC2)c1C1COC1 [Compound 282, N-(4-cyclobutyl-1-methyl-5-(oxetan-3-yl)-1H-pyrazol-3-yl)-3,3-difluorocyclobutane-1-carboxamide]	− (“−” No Activity < 0.15)
Cn1nc(NC(=O)C[C@@H]2CC(F)(F)C2(F)F)c(C2CCC2)c1-c1ccc(F)cn1 [Compound 254, (R)-N-(4-cyclobutyl-5-(5-fluoropyridin-2-yl)-1-methyl-1H-pyrazol-3-yl)-2-(2,2,3,3-tetrafluorocyclobutyl)acetamide]	++ (“++” High Activity ≥ 0.7)
Cn1nc(NC(=O)C2(C(F)(F)F)CC2)c(C2CCC2)c1-c1ccc(Cl)s1 [Compound 153, N-(5-(5-chlorothiophen-2-yl)-4-cyclobutyl-1-methyl-1H-pyrazol-3-yl)-1-(trifluoromethyl)cyclopropane-1-carboxamide]	++ (“++” High Activity ≥ 0.7)
Cn1nc(NC(=O)NC2CC(F)(F)C2)c(C2CCC2)c1C1CC(F)(F)C1 [Compound 290, 1-(4-cyclobutyl-5-(3,3-difluorocyclobutyl)-1-methyl-1H-pyrazol-3-yl)-3-(3,3-difluorocyclobutyl)urea]	++ (“++” High Activity ≥ 0.7)
Cn1nc(NC(=O)C[C@@H]2CC(F)(F)C2(F)F)c(C2CCC2)c1-c1ccc(OC(F)F)nc1 [Compound 283, (R)-N-(4-cyclobutyl-5-(6-(difluoromethoxy)pyridin-3-yl)-1-methyl-1H-pyrazol-3-yl)-2-(2,2,3,3-tetrafluorocyclobutyl)acetamide]	++ (“++” High Activity ≥ 0.7)
Cn1nc(NC(=O)COC(C)(C)C)c(C2CCC2)c1-c1ccc(F)cc1 [Compound 108, 2-(tert-butoxy)-N-(4-cyclobutyl-5-(4-fluorophenyl)-1-methyl-1H-pyrazol-3-yl)acetamide]	+ (“+” Moderate Activity 0.15-0.7)
Cn1nc(NC(=O)C2(C)CC2)c(C2CCC2)c1-c1ccc(Cl)s1 [Compound 152, N-(5-(5-chlorothiophen-2-yl)-4-cyclobutyl-1-methyl-1H-pyrazol-3-yl)-1-methylcyclopropane-1-carboxamide]	++ (“++” High Activity ≥ 0.7)
Cn1nc(NC(=O)[C@H]2CC2(F)F)c(C2CCC2)c1C1CC(F)(F)C1 [Compound 157, (R)-N-(4-cyclobutyl-5-(3,3-difluorocyclobutyl)-1-methyl-1H-pyrazol-3-yl)-2,2-difluorocyclopropane-1-carboxamide]	++ (“++” High Activity ≥ 0.7)
Cc1c(C2CCC2)c(NC(=O)Cc2cc(F)cc(F)c2)nn1C [Compound 1, N-(4-cyclobutyl-1,5-dimethyl-1H-pyrazol-3-yl)-2-(3,5-difluorophenyl)acetamide]	+ (“+” Moderate Activity 0.15-0.7)
Cn1nc(NC(=O)C[C@H]2CC(F)(F)C2(F)F)c(C2CCC2)c1-c1noc2ccccc12 [Compound 19, (S)-N-(5-(benzo[d]isoxazol-3-yl)-4-cyclobutyl-1-methyl-1H-pyrazol-3-yl)-2-(2,2,3,3-tetrafluorocyclobutyl)acetamide]	++ (“++” High Activity ≥ 0.7)

From patent US20250171430A1, “PYRAZOLYL COMPOUNDS AS KV7 CHANNEL ACTIVATORS” (Biohaven Therapeutics Ltd., priority 2022, published 2025)
